Assay results from patent US20250382308A1, “COMPOUNDS ACTIVE TOWARDS BROMODOMAINS” (NUEVOLUTION A/S, priority 2022, published 2025).

How the values were obtained:
[1] = biological target: first bromodomain of BRD4 (Homo sapiens (Human), UniProt O60885); test: Bromoscan binding assay BRD4 (1); details: for Kd: Bromoscan, geometric mean where multiple measurements have been made; for Selectivity BRD4(2)/BRD4(1): ratio BRD4(2) Kd / BRD4(1) Kd
Procedure: (§1) Compounds were assayed for binding affinity using bromoscan assays and a phosphodiesterase three assay.
(§2) Bromoscan assays were run by DiscoveRx Corporation. The relevant assay names are BRD4 (1) for the first bromodomain of BRD4 and BRD4 (2) for the second bromodomain of BRD4. Further Bromoscan assays covering other bromodomains may be employed to establish the selectivity profile of a compound of interest. To run the Bromoscan assay, a T7 phage strain displaying the relevant bromodomain was grown in parallel in 24-well blocks in an E. coli host derived from the BL21 strain. E. coli were grown to log-phase and infected with T7 phage from a frozen stock (multiplicity of infection=0.4) and incubated with shaking at 32° C. until lysis (90-150 minutes). The lysates were centrifuged (5,000×g) and filtered (0.2 μm) to remove cell debris. […] The liganded beads were blocked with excess biotin and washed with blocking buffer (SeaBlock (Pierce), 1% BSA (bovine serum albumin), 0.05% Tween 20, 1 mM DTT (dithiothreitol)) to remove unbound ligand and to reduce non-specific phage binding. […] Test compounds were prepared as 1000× stocks in 100% DMSO and subsequently diluted 1:10 in monoethylene glycol (MEG) to create stocks at 100× the screening concentration (resulting stock solution is 10% DMSO/90% MEG). The compounds were then diluted directly into the assays such that the final concentration of DMSO and MEG were 0.1% and 0.9%, respectively. All reactions were performed in polystyrene 96-well plates in a final volume of 0.135 ml. […] The bromodomain concentration in the eluates was measured by qPCR (quantitative real-time polymerase chain reaction). Binding constants (Kds) were calculated with a standard dose-response curve using the Hill equation: Response=Blackground+((Signal-Background)/(1+Kd^Hill Slope/Dose^Hill Slope)). The Hill Slope was set to −1. Curves were fitted using a non-linear least square fit with the Levenberg-Marquardt algorithm.

[2] = biological target: second bromodomain of BRD4 (Homo sapiens (Human), UniProt O60885); test: Bromoscan binding assay BRD4 (2); details: geometric mean where multiple measurements have been made
Procedure: as §1, §2

| Compound | Kd [1] [nM] | Selectivity BRD4(2)/BRD4(1) [1] | Kd [2] [nM] |
| --- | --- | --- | --- |
| COc1cc(NC(=O)c2cc3c(nc2N2C[C@H]4CCO[C@H]4C2)COC3)cc2c(C)cc(=O)[nH]c12 (racemic) [Example 22, N-(8-methoxy-4-methyl-2-oxo-1H-quinolin-6-yl)-2-[rac-(3aR,6aR)-2,3,3a,4,6,6a-hexahydrofuro[2,3-c]pyrrol-5-yl]-5,7-dihydrofuro[3,4-b]pyridine-3-carboxamide] | 170 | 22 | 3800 |
| COc1cc(NC(=O)c2cc3c(nc2C2=CCCC2)COC3)cc2c(C)cc(=O)[nH]c12 [Example 3, 2-(cyclopenten-1-yl)-N-(8-methoxy-4-methyl-2-oxo-1H-quinolin-6-yl)-5,7-dihydrofuro[3,4-b]pyridine-3-carboxamide] | 13 | 62 | 800 |
| COc1cc(NC(=O)c2cc3c(nc2N2CC4CC2(C)C4)COC3)cc2c(C)cc(=O)[nH]c12 [Example 4, N-(8-methoxy-4-methyl-2-oxo-1H-quinolin-6-yl)-2-(1-methyl-2-azabicyclo[2.1.1]hexan-2-yl)-5,7-dihydrofuro[3,4-b]pyridine-3-carboxamide] | 29 | >172 | > 5000 |
| COc1cc(NC(=O)c2cc3c(nc2N2CC4C(C2)C4(F)F)COC3)cc2c(C)cc(=O)[nH]c12 (centres unmarked) [Example 5, 2-(6,6-difluoro-3-azabicyclo[3.1.0]hexan-3-yl)-N-(8-methoxy-4-methyl-2-oxo-1H-quinolin-6-yl)-5,7-dihydrofuro[3,4-b]pyridine-3-carboxamide] | 17 | 12 | 200 |
| Cc1cc(=O)[nH]c2c3c(c(NC(=O)c4cc5c(nc4N4CCOCC4)COC5)cc12)CCO3 [Example 8, N-(6-methyl-8-oxo-3,9-dihydro-2H-furo[3,2-h]quinolin-4-yl)-2-morpholino-5,7-dihydrofuro[3,4-b]pyridine-3-carboxamide] | 56 | 45 | > 2500 |
| COc1c(F)c(NC(=O)c2cc3c(nc2N2CCOCC2)COC3)cc2c(C)cc(=O)[nH]c12 [Example 9, N-(7-fluoro-8-methoxy-4-methyl-2-oxo-1H-quinolin-6-yl)-2-morpholino-5,7-dihydrofuro[3,4-b]pyridine-3-carboxamide] | 440 | 17 | 7400 |
| Cc1cc(=O)[nH]c2c3c(c(NC(=O)c4cc5c(nc4N4CCOCC4)COC5)cc12)OCCO3 [Example 10, N-(7-methyl-9-oxo-3,10-dihydro-2H-[1,4]dioxino[2,3-h]quinolin-5-yl)-2-morpholino-5,7-dihydrofuro[3,4-b]pyridine-3-carboxamide] | 43 | >232 | > 10000 |
| COc1cc2[nH]c(=O)cc(C)c2cc1NC(=O)c1cc2c(nc1N1CCOCC1)COC2 [Example 14, N-(7-methoxy-4-methyl-2-oxo-1H-quinolin-6-yl)-2-morpholino-5,7-dihydrofuro[3,4-b]pyridine-3-carboxamide] | 26 | 15 | 400 |
| COc1cc(NC(=O)c2cc3c(nc2N2CCC(F)(F)C2)COC3)cc2c(C)cc(=O)[nH]c12 [Example 16, 2-(3,3-difluoropyrrolidin-1-yl)-N-(8-methoxy-4-methyl-2-oxo-1H-quinolin-6-yl)-5,7-dihydrofuro[3,4-b]pyridine-3-carboxamide] |  | 43 |  |
| COc1cc(NC(=O)c2cc3c(nc2N2CCC[C@H]2C)COC3)cc2c(C)cc(=O)[nH]c12 [Example 18, N-(8-methoxy-4-methyl-2-oxo-1H-quinolin-6-yl)-2-[(2R)-2-methylpyrrolidin-1-yl]-5,7-dihydrofuro[3,4-b]pyridine-3-carboxamide] | 12 | 17 | 200 |
| COc1cc(NC(=O)c2cc3c(nc2N2CC4CCOC4C2)COC3)cc2c(C)cc(=O)[nH]c12 (centres unmarked) [Example 19, 2-(2,3,3a,4,6,6a-hexahydrofuro[2,3-c]pyrrol-5-yl)-N-(8-methoxy-4-methyl-2-oxo-1H-quinolin-6-yl)-5,7-dihydrofuro[3,4-b]pyridine-3-carboxamide] | 180 | 31 | 5600 |
| COc1cc(NC(=O)c2cc3c(nc2N2CC4COCC4C2)COC3)cc2c(C)cc(=O)[nH]c12 (centres unmarked) [Example 20, 2-(1,3,3a,4,6,6a-hexahydrofuro[3,4-c]pyrrol-5-yl)-N-(8-methoxy-4-methyl-2-oxo-1H-quinolin-6-yl)-5,7-dihydrofuro[3,4-b]pyridine-3-carboxamide] | 70 | 49 | 3400 |
| COc1cc(NC(=O)c2cc3c(nc2N2C4CCCC2CC4)COC3)cc2c(C)cc(=O)[nH]c12 [Example 21, 2-(8-azabicyclo[3.2.1]octan-8-yl)-N-(8-methoxy-4-methyl-2-oxo-1H-quinolin-6-yl)-5,7-dihydrofuro[3,4-b]pyridine-3-carboxamide] | 6 | 233 | 1400 |
| COc1cc(NC(=O)c2cc3c(nc2N2CCC[C@@H]2C)COC3)cc2c(C)cc(=O)[nH]c12 [Example 25, N-(8-methoxy-4-methyl-2-oxo-1H-quinolin-6-yl)-2-[(2S)-2-methylpyrrolidin-1-yl]-5,7-dihydrofuro[3,4-b]pyridine-3-carboxamide] | 150 | 30 | 4500 |
| CCN(CC)c1nc2c(cc1C(=O)Nc1cc(OC)c3[nH]c(=O)cc(C)c3c1)COC2 [Example 27, 2-(diethylamino)-N-(8-methoxy-4-methyl-2-oxo-1H-quinolin-6-yl)-5,7-dihydrofuro[3,4-b]pyridine-3-carboxamide] |  | 24 |  |
| CCN(c1nc2c(cc1C(=O)Nc1cc(OC)c3[nH]c(=O)cc(C)c3c1)COC2)C(C)C [Example 28, 2-[ethyl(isopropyl)amino]-N-(8-methoxy-4-methyl-2-oxo-1H-quinolin-6-yl)-5,7-dihydrofuro[3,4-b]pyridine-3-carboxamide] | 33 | 30 | 1000 |
| COc1cc(NC(=O)c2cc3c(nc2N2CCOCC2)CO[C@@H]3C)cc2c(C)cc(=O)[nH]c12 [Example 30, (5R)—N-(8-methoxy-4-methyl-2-oxo-1H-quinolin-6-yl)-5-methyl-2-morpholino-5,7-dihydrofuro[3,4-b]pyridine-3-carboxamide] | 14 | 86 | 1200 |
| COc1cc(NC(=O)c2cc3c(nc2N2CCOCC2)COC3C)cc2c(C)cc(=O)[nH]c12 (centres unmarked) [Example 31, N-(8-methoxy-4-methyl-2-oxo-1H-quinolin-6-yl)-5-methyl-2-morpholino-5,7-dihydrofuro[3,4-b]pyridine-3-carboxamide] | 22 | 45 | 1000 |
| COc1cc(NC(=O)c2cc3c(nc2N2CCOCC2)CN(C)C3)cc2c(C)cc(=O)[nH]c12 [Example 32, N-(8-methoxy-4-methyl-2-oxo-1H-quinolin-6-yl)-6-methyl-2-morpholino-5,7-dihydropyrrolo[3,4-b]pyridine-3-carboxamide] | 17 | 18 | 300 |
| COc1cc(NC(=O)c2cc3c(nc2N2CCOCC2)CN(C2COC2)C3)cc2c(C)cc(=O)[nH]c12 [Example 33, N-(8-methoxy-4-methyl-2-oxo-1H-quinolin-6-yl)-2-morpholino-6-(oxetan-3-yl)-5,7-dihydropyrrolo[3,4-b]pyridine-3-carboxamide] | 13 | 23 | 300 |
| CCN1Cc2cc(C(=O)Nc3cc(OC)c4[nH]c(=O)cc(C)c4c3)c(N3CCOCC3)nc2C1 [Example 34, 6-ethyl-N-(8-methoxy-4-methyl-2-oxo-1H-quinolin-6-yl)-2-morpholino-5,7-dihydropyrrolo[3,4-b]pyridine-3-carboxamide] | 25 | 32 | 800 |
| COc1cc(NC(=O)c2cc3c(nc2N2CCOCC2)CN(C(C)C)C3)cc2c(C)cc(=O)[nH]c12 [Example 35, 6-isopropyl-N-(8-methoxy-4-methyl-2-oxo-1H-quinolin-6-yl)-2-morpholino-5,7-dihydropyrrolo[3,4-b]pyridine-3-carboxamide] | 20 | 30 | 600 |
| COc1cc(NC(=O)c2cc3c(nc2N2CC[C@@H](F)C2)COC3)cc2c(C)cc(=O)[nH]c12 [Example 40, 2-[(3R)-3-fluoropyrrolidin-1-yl]-N-(8-methoxy-4-methyl-2-oxo-1H-quinolin-6-yl)-5,7-dihydrofuro[3,4-b]pyridine-3-carboxamide] | 11 | 14 | 150 |
